Results: patent US8802664B2 (Bioproject, priority 2010, dated 2014)

Columns and labels:
[1] = molecular target: T1, human H4 receptor (Homo sapiens, UniProt Q9H3N8); experiment: [3H]Histamine binding on membranes of CHO cells stably expressing human H4 receptor
T1 construct: expressed in transfected cells
Procedure, shortened: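 Nonspecific binding defined with 10 μM JNJ 7777120. Bound radioactivity collected on polyethyleneimine-treated GF/B filters and counted by liquid scintillation.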

Row | melting point | Ki or IC50 activity class [1] | Structure (SMILES)
1 | 132 °C | < 30 nM | CN1CCC(OC(c2nc3ccccc3[nH]2)c2cc(OC(F)(F)F)ccc2O)CC1 (stereo not shown) [Example 571]
2 | 142 °C | < 1000 nM | CN1CCC(OC(c2nc3ccccc3[nH]2)c2cc(F)cc(F)c2O)CC1 (stereo not shown) [Example 579]
3 | 93 °C | < 300 nM | CN1CCC(OC(c2cccc(F)c2)c2nc3ccccc3[nH]2)CC1 (stereo not shown) [Example 155, 2-[(3-fluorophenyl)(1-methylpiperidin-4-yloxy)methyl]-1H-benzimidazole]
4 | 163 °C | < 300 nM | Cc1cc(C(OC2CCN(C)CC2)c2nc3ccccc3[nH]2)c(O)c(F)c1C (stereo not shown) [Example 622]
5 | 102 °C | < 30 nM | Cc1cc(O)c(C(OC2CCN(C)CC2)c2nc3ccccc3[nH]2)cc1F (stereo not shown) [Example 613]
6 | 146 °C | < 30 nM | Cc1cc(F)cc(O)c1C(OC1CCN(C)CC1)c1nc2ccccc2[nH]1 (stereo not shown) [Example 600]
7 | 139 °C | < 30 nM | Cc1cc(O)c(C(OC2CCN(C)CC2)c2nc3ccccc3[nH]2)cc1C (stereo not shown) [Example 611]
8 | 151 °C | < 30 nM | Cc1ccc(O)c(C(OC2CCN(C)CC2)c2nc3ccccc3[nH]2)c1 (stereo not shown) [Example 578, 2-[(1H-benzimidazol-2-yl)(1-methylpiperidin-4-yloxy)methyl]-4-methylphenol]
9 | 135 °C | < 300 nM | CN1CCC(OC(c2nc3ccccc3[nH]2)c2cc(C(F)(F)F)ccc2O)CC1 (stereo not shown) [Example 598]
10 | 142 °C | < 30 nM | CN1CCC(OC(c2nc3ccccc3[nH]2)c2cc(F)ccc2O)CC1 (stereo not shown) [Example 572]
11 | 145 °C | < 30 nM | Cc1ccc(C(OC2CCN(C)CC2)c2nc3ccccc3[nH]2)c(O)c1 (stereo not shown) [Example 574]
12 | 125 °C | < 300 nM | CN1CCC(OC(c2nc3ccccc3[nH]2)c2cccc(I)c2F)CC1 (stereo not shown) [Example 334, 2-[(2-fluoro-3-iodophenyl)(1-methylpiperidin-4-yloxy)methyl]-1H-benzimidazole]
13 | 110 °C | < 300 nM | CN1CCC(OC(c2nc3ccccc3[nH]2)c2cccc3cc[nH]c23)CC1 (stereo not shown) [Example 577]
14 | 90 °C | < 300 nM | CN1CCC(OC(c2cccc(-c3ccccc3F)c2)c2nc3ccccc3[nH]2)CC1 (stereo not shown) [Example 142, 2-[(2′-fluorobiphenyl-3-yl)(1-methylpiperidin-4-yloxy)methyl]-1H-benzimidazole]
15 | 120 °C | < 300 nM | CCCOc1ccc(O)c(C(OC2CCN(C)CC2)c2nc3ccccc3[nH]2)c1 (stereo not shown) [Example 603]
16 | 138 °C | < 30 nM | CSc1ccc(O)c(C(OC2CCN(C)CC2)c2nc3ccccc3[nH]2)c1 (stereo not shown) [Example 587]
17 | 70 °C | < 1000 nM | CN1CCC(OC(c2cccc(Br)c2)c2nc3cc(F)c(F)cc3[nH]2)CC1 (stereo not shown) [Example 469, 2-[(3-bromophenyl)(1-methylpiperidin-4-yloxy)methyl]-5,6-difluoro-1H-benzimidazole]
18 | 80 °C | < 300 nM | Cc1ccc(C(OC2CCN(C)CC2)c2nc3ccccc3[nH]2)c(F)c1F (stereo not shown) [Example 551]

Second part, the molecule before the results:

Row | Structure (SMILES) | melting point | Ki or IC50 activity class [1]
19 | CSc1cccc(C(NC2CCN(C)CC2)c2nc3ccccc3[nH]2)c1 (stereo not shown) [Example 75, [(1H-benzimidazol-2-yl)(3-methylsulfanylphenyl)methyl](1-methylpiperidin-4-yl)amine] | 166 °C | < 30 nM
20 | CN1CCC(OC(c2cccc(SCCCO)c2)c2nc3ccccc3[nH]2)CC1 (stereo not shown) [Example 246, 3-{3-[(1H-benzimidazol-2-yl)(1-methylpiperidin-4-yloxy)methyl]phenylsulfanyl}propan-1-ol] | 97 to 99 °C | < 300 nM
21 | C=CCCOc1cccc(C(NC2CCN(C)CC2)c2nc3ccccc3[nH]2)c1 (stereo not shown) [Example 145, [(1H-benzimidazol-2-yl)(3-but-3-enyloxyphenyl)methyl](1-methylpiperidin-4-yl)amine] | 71 °C | < 300 nM
22 | CCCOc1cccc(C(NC2CCN(C)CC2)c2nc3ccccc3[nH]2)c1 (stereo not shown) [Example 50, [(1H-benzimidazol-2-yl)(3-propoxyphenyl)methyl](1-methylpiperidin-4-yl)amine] | 143 °C | < 30 nM
23 | CN1CCC(OC(c2nc3ccccc3[nH]2)c2cc(C(C)(C)c3ccccc3)ccc2O)CC1 (stereo not shown) [Example 604] | 130 °C | < 300 nM
24 | CN1CCC(OC(c2cccc(Br)c2)c2nc3cc(F)ccc3[nH]2)CC1 (single isomer, unassigned) [Example 567, 2-[(3-bromophenyl)(1-methylpiperidin-4-yloxy)methyl]-5-fluoro-1H-benzimidazole] | 89 °C | < 300 nM
25 | CN1CCC(OC(c2cccc(OCCN)c2)c2nc3ccccc3[nH]2)CC1 (stereo not shown) [Example 291, 2-{3-[(1H-benzimidazol-2-yl)(1-methylpiperidin-4-yloxy)methyl]phenoxy}ethylamine] | 90 °C | < 300 nM
26 | CN1CCC(OC(c2cccc(-c3ccc(NC(=O)OC(C)(C)C)cc3)c2)c2nc3ccccc3[nH]2)CC1 (stereo not shown) [Example 138, {3′-[(1H-benzimidazol-2-yl)(1-methylpiperidin-4-yloxy)methyl]biphenyl-4-yl}carbamic acid tert-butyl ester] | 135 °C | < 300 nM
27 | CN1CCC(NC(c2ccc[nH]2)c2nc3ccccc3s2)CC1 (stereo not shown) [Example 58, [benzothiazol-2-yl(1H-pyrrol-2-yl)methyl](1-methylpiperidin-4-yl)amine] | 125 °C | < 300 nM
28 | CN1CCC(OC(c2cccc(O)c2)c2nc3ccccc3s2)CC1 (stereo not shown) [Example 62, 3-[benzothiazol-2-yl(1-methylpiperidin-4-yloxy)methyl]phenol] | 201 °C | < 30 nM
29 | CN1CCC(NC(c2ccccc2)c2nc3ccccc3[nH]2)CC1 (stereo not shown) [Example 39, [(1H-benzimidazol-2-yl)phenylmethyl](1-methylpiperidin-4-yl)amine] | 133 °C | < 300 nM
30 | CN1CCC(OC(c2cccc(C#CCCCO)c2)c2nc3ccccc3[nH]2)CC1 (stereo not shown) [Example 192, 5-{3-[(1H-benzimidazol-2-yl)(1-methylpiperidin-4-yloxy)methyl]phenyl}pent-4-yn-1-ol] | 85 °C | < 300 nM
31 | CN1CCC(OC(c2cccc(-c3ccn[nH]3)c2)c2nc3ccccc3s2)CC1 (stereo not shown) [Example 260, 2-{(1-methylpiperidin-4-yloxy)[3-(2H-pyrazol-3-yl)phenyl]methyl}benzothiazole] | 90 °C | < 30 nM
32 | CN1CCC(OC(c2cccc(SCCCCO)c2)c2nc3cc(F)ccc3[nH]2)CC1 (stereo not shown) [Example 427, 4-{3-[(5-fluoro-1H-benzimidazol-2-yl)(1-methylpiperidin-4-yloxy)methyl]phenylsulfanyl}butan-1-ol] | 85 °C | < 300 nM
33 | CN1CCC(OC(c2cccc(SCCNC(=N)NC#N)c2)c2nc3ccccc3[nH]2)CC1 (stereo not shown) [Example 318, N-(2-{3-[(1H-benzimidazol-2-yl)(1-methylpiperidin-4-yloxy)methyl]phenylsulfanyl}ethyl)-N′-cyanoguanidine] | 65 °C | < 30 nM
34 | C=Cc1cccc(C(OC2CCN(C)CC2)c2nc3ccccc3s2)c1 (stereo not shown) [Example 218, 2-[(1-methylpiperidin-4-yloxy)(3-vinyl-phenyl)methyl]benzothiazole] | 165 °C | < 30 nM
35 | CN1CCC(OC(c2cccc(SCCNC(N)=O)c2)c2nc3ccccc3[nH]2)CC1 (stereo not shown) [Example 298, (2-{3-[(1H-benzimidazol-2-yl)(1-methylpiperidin-4-yloxy)methyl]phenylsulfanyl}ethyl)urea] | 136 °C | < 1000 nM
36 | CN1CCC(NC(c2cccc(-c3ccco3)c2)c2nc3ccccc3[nH]2)CC1 (stereo not shown) [Example 144, [(1H-benzimidazol-2-yl)(3-furan-2-ylphenyl)methyl](1-methylpiperidin-4-yl)amine] | 108 °C | < 30 nM
37 | CN1CCC(NC(c2cccc(OCCCC(F)(F)F)c2)c2nc3ccccc3[nH]2)CC1 (stereo not shown) [Example 175, {(1H-benzimidazol-2-yl)[3-(4,4,4-trifluoro-butoxy)phenyl]methyl}(1-methylpiperidin-4-yl)amine] | 94 °C | < 300 nM
38 | CSc1ccccc1-c1cccc(C(OC2CCN(C)CC2)c2nc3ccccc3[nH]2)c1 (stereo not shown) [Example 114, 2-[(1-methylpiperidin-4-yloxy)(2′-methylsulfanylbiphenyl-3-yl)methyl]-1H-benzimidazole] | 163 °C | < 300 nM
39 | CN1CCC(OC(c2cccc(C#CCCCCNC(=N)NC(=O)OC(C)(C)C)c2)c2nc3ccccc3s2)CC1 (stereo not shown) [Example 341, N-tert-butoxycarbonyl-N′-(6-{3-[(benzothiazol-2-yl)(1-methylpiperidin-4-yloxy)methyl]phenyl}hex-5-ynyl)guanidine] | 130 °C | < 300 nM
40 | CN1CCC(OC(c2cccc(-c3ccccc3CO)c2)c2nc3ccccc3[nH]2)CC1 (stereo not shown) [Example 123, {3′-[(1H-benzimidazol-2-yl)(1-methylpiperidin-4-yloxy)methyl]biphenyl-2-yl}methanol] | 107 °C | < 1000 nM
41 | CC(=O)c1cccc(C(NC2CCN(C)CC2)c2nc3ccccc3[nH]2)c1 (stereo not shown) [Example 90, 1-{3-[(1H-benzimidazol-2-yl)(1-methylpiperidin-4-ylamino)methyl]phenyl}ethanone] | 198 °C | < 300 nM
